The source of these data is PMC2363406 (British Journal of Cancer, 2000).

Each structure is given as a SMILES string. “And” between values parts separate entries of the source, which are not always exact repeats. Equal entries are not always repeated. “Also recorded” adds a separate entry of the source. Structures can show the parent of a compound that is named as a salt. Where two headings read alike, the source gives them in different places.

Broadly, the half-life is the time in which the quantity being followed falls by half. What is called IC50 is the concentration at which inhibition is half-maximal. One may read the Ki as the dissociation constant of the complex between target and ligand, obtained from inhibition or displacement. A word on the AUC: it is the area under the concentration-time curve, a measure of exposure.

For one series, the system named is cytochrome P450. Particulars: cited from earlier work; for metabolic interactions with paclitaxel: paclitaxel pre-medication drugs, 1995, Schlichenmyer et al; for effect on the metabolism of paclitaxel: 1997.
Series [1] is described as follows: Clinical plasma pharmacokinetics of nolatrexed (HPLC, non-compartmental analysis). It is filed as in vivo, human. Particulars: for half-life: human, plasma, iv, Nolatrexed Half-life; for half-life / Nolatrexed Half-life / Nolatrexed Clearance: nolatrexed 500 mg m-2 day-1 120-h i.v. infusion.
A further series deals with HNX22B. Description: In vitro growth inhibition (SRB assay), single agents and nolatrexed/paclitaxel combination (Chou and Talalay combination index). It is filed as cell-based.
The subject of the next series is HNX14C. Described as above. It is filed as cell-based.
A further series has as its target T1, CYP2C8 (Homo sapiens, UniProt P10632).
T1 construct: Pooled human liver microsomes (1 mg protein per ml) were incubated with paclitaxel; tissue Keystone Skin Bank Exton, PA, USA; host or cells: pooled human liver microsomes from ten individual livers
T1 sequence (P10632 1-490): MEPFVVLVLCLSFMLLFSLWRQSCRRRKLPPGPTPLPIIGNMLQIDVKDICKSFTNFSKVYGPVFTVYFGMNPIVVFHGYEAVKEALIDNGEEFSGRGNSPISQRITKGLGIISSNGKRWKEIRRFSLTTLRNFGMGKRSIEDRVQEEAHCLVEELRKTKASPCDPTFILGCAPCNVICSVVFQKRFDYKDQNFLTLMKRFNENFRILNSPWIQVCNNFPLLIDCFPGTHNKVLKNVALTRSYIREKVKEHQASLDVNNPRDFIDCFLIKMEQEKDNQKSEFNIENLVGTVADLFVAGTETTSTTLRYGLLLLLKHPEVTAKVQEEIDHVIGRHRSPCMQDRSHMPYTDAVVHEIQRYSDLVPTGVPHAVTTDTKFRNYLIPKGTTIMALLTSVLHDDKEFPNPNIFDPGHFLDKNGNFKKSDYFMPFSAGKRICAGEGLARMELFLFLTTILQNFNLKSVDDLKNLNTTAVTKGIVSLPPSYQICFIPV
Description: Inhibition of paclitaxel metabolism to 6-hydroxypaclitaxel in pooled human liver microsomes. It is filed as in vitro ADME. (In general: Liver microsomes are vesicles of endoplasmic reticulum, rich in cytochrome P450 enzymes.)

The conditions of series [2]: single agent, 135 mg m-2, cited from earlier work.
Series [3] in a line: Clinical plasma pharmacokinetics of paclitaxel and its metabolites (HPLC, non-compartmental analysis). Particulars: for AUC / half-life: human.
Setting [4] is: in vitro studies, ref Jamis-Dow et al.
Where [5] appears, read: schedule 1, patients 3, 6, 9 in order.
The mark [6] stands for this setting: schedule 2, patients 5, 7, 10 in order.
The mark [7] stands for this setting: schedule 3, patients 2, 4, 8 in order.
[8] abbreviates: 3-h paclitaxel exposure, single agent, mean (s.d.) n = 3.
[9] abbreviates: schedule 1, paclitaxel 80 mg m-2 3-h i.v., course 1, patients 3, 6, 9 in order.
The mark [10] stands for this setting: schedule 2, paclitaxel 80 mg m-2.
[11] abbreviates: schedule 2, paclitaxel 80 mg m-2 3-h i.v., course 1, patients 5, 7, 10 in order.
[12] abbreviates: human liver preparations and patients, ref Harris et al, 1994, Kuhn et al.

Regarding `CN(C)CCC(c1ccc(Cl)cc1)c1ccccn1` (stereo not drawn) [chlorpheniramine], the “metabolic interactions with paclitaxel” value with cytochrome P450 (ref Jamis-Dow et al) is reported as “no metabolic interactions”.

As to `CN/C(=N/CCSCc1nc[nH]c1C)NC#N` [cimetidine], the “metabolic interactions with paclitaxel” value in the series on cytochrome P450 (ref Jamis-Dow et al) is recorded as “no metabolic interactions”.

Turning to `C[C@@H]1C[C@H]2[C@@H]3CCC4=CC(=O)C=C[C@]4(C)[C@@]3(F)[C@@H](O)C[C@]2(C)[C@@]1(O)C(=O)CO` [dexamethasone], in the series with cytochrome P450 (ref Jamis-Dow et al), the “metabolic interactions with paclitaxel” value is given as “no metabolic interactions”.

With `OC(Cn1cncn1)(Cn1cncn1)c1ccc(F)cc1F` [fluconazole], the “effect on the metabolism of paclitaxel” value in the series with cytochrome P450 (setting [4]) was “inhibit the metabolism of paclitaxel”.

With `CC(=O)N1CCN(c2ccc(OCC3COC(Cn4ccnc4)(c4ccc(Cl)cc4Cl)O3)cc2)CC1` (stereo not drawn) [ketoconazole], the “effect on the metabolism of paclitaxel” value with cytochrome P450 (setting [4]) was “inhibit the metabolism of paclitaxel”.

As to `Cc1ccc2nc(N)[nH]c(=O)c2c1Sc1ccncc1` [nolatrexed, 3,4-dihydro-2-amino-6-methyl-4-oxo-5-(4-pyridylthio)-quinazolone dihydrochloride], the half-life in series [1] (setting [5]) came out at 1.1 h; in series [1] (setting [6]), 1.97 h; in series [1] (setting [7]), 1.62 h. Moreover, the “Nolatrexed Half-life” value in series [1] (setting [5]) was 1.88 h and 2.13 h; in series [1] (setting [6]), 1.58 h and 2.57 h; in series [1] (setting [7]), 2.2 h and 1.9 h. Further, the “Nolatrexed Clearance” value in series [1] (setting [6]) is 73 ml min-1 m-2 and 108 ml min-1 m-2 and 91 ml min-1 m-2; in series [1] (setting [7]), 99 ml min-1 m-2 and 62 ml min-1 m-2 and 79 ml min-1 m-2. For the same compound, the “effect of schedule on the pharmacokinetics of nolatrexed” value in series [1] (three schedules with paclitaxel) was “no effect of schedule; also recorded: unaffected by schedule”. The concentration for half-maximal inhibition (IC50) with HNX22B (120 h) was determined as 660 nM; in the series on HNX14C (120 h), 1120 nM. In addition, on CYP2C8 (human liver microsomes, statement in words), the “inhibition of paclitaxel metabolism” value is listed as “being an inhibitor of the major routes of metabolism of paclitaxel”. At CYP2C8 (read-out: Ki, inhibition of metabolism of paclitaxel to its 6-hydroxy-metabolite), the Ki was 640 nM.

As to `CC(=O)O[C@H]1C(=O)[C@@]2(C)[C@H]([C@H](OC(=O)c3ccccc3)[C@]3(O)C[C@H](OC(=O)[C@H](O)[C@@H](NC(=O)c4ccccc4)c4ccccc4)C(C)=C1C3(C)C)[C@]1(OC(C)=O)CO[C@@H]1C[C@@H]2O` [paclitaxel], the results for the IC50 in the series with HNX22B (setting [8]) and with HNX14C (setting [8]) were 38 nM and 31 nM, respectively. For the same compound, the “Paclitaxel Clearance” value in series [2] (ref Gianni, 1995) was 247 ml min-1 m-2; in series [2] (ref Keung, 1993) it was 295 ml min-1 m-2; in series [3] (patient 8, single-agent paclitaxel 135 mg m-2 as 3-h infusion, no nolatrexed) it was 127 ml min-1 m-2; in series [3] (setting [9]), 376 ml min-1 m-2 and 322 ml min-1 m-2 and 411 ml min-1 m-2; in series [3] (setting [11]), 165–238 ml min-1 m-2 and 165 ml min-1 m-2 and 238 ml min-1 m-2 and 171 ml min-1 m-2 and 165-238 ml min-1 m-2. The AUC in series [3] (plasma, intravenous, 80 mg, AUCs of paclitaxel, schedules 1 and 3 (except patient 8), paclitaxel 80 mg m-2) was 3 to 4.85 µM·h; in series [3] (plasma, intravenous, 135 mg m-2, Paclitaxel AUC, patient 8, single-agent paclitaxel 135 mg m-2 as 3-h infusion, no nolatrexed), 20.6 µM·h; in series [3] (plasma, iv, 80 mg, Paclitaxel AUC, schedule 1, paclitaxel 80 mg m-2 3-h i.v., course 1, patients 3, 6, 9 in order), 3.78 µM·h; in series [3] (plasma, iv, 80 mg, Paclitaxel AUC, schedule 2, paclitaxel 80 mg m-2 3-h i.v., course 1, patients 5, 7, 10 in order), 9.42 µM·h. Moreover, the half-life in series [3] (plasma, intravenous, 135 mg m-2, Paclitaxel Half-life, patient 8, single-agent paclitaxel 135 mg m-2 as 3-h infusion, no nolatrexed) was determined as 6 h; in series [3] (plasma, iv, 80 mg, Paclitaxel Half-life, schedule 1, paclitaxel 80 mg m-2 3-h i.v., course 1, patients 3, 6, 9 in order), 7.02 h; in series [3] (plasma, iv, 80 mg, Paclitaxel Half-life, schedule 2, paclitaxel 80 mg m-2 3-h i.v., course 1, patients 5, 7, 10 in order), 6.88 h; in series [3] (plasma, iv, 80 mg, Paclitaxel Half-life, schedule 3, paclitaxel 80 mg m-2 3-h i.v., course 1, patients 2, 4, 8 in order), 6.08 h. Also, in series [3] (patients on schedules 1 and 3 (with the exception of patient 8), paclitaxel 80 mg m-2), the clearance of paclitaxel was 322–520 ml min-1 m-2 and 322-520 ml min-1 m-2. In addition, the “Paclitaxel Half-life” value is 7.37 h and 8.45 h in series [3] (setting [9]); 6.35 h and 6.93 h in series [3] (setting [11]); 8.42 h and 6.35 h in series [3] (schedule 3, paclitaxel 80 mg m-2 3-h i.v., course 1, patients 2, 4, 8 in order). For the same compound, the “time above plasma paclitaxel concentration of 0.05 M” value in series [3] (schedule 2) fell in the range of 16 to 27 h; in series [3] (schedules 1 and 3) it was 8 to 18 h. For the same compound, the “time above plasma paclitaxel concentration of 0.1 M” value in series [3] (schedule 2) was in the range of 10 to 18 h; in series [3] (schedules 1 and 3), 5 to 8 h. Besides, the “Paclitaxel Peak conc.” value in series [3] (schedule 2 (nolatrexed 0-120 h, paclitaxel 48-51 h), paclitaxel 80 mg m-2 3-h i.v., plasma, course 1, patients 5, 7, 10 in order) was 1.66-1.93 M. For the same compound, the “areas under the curve of paclitaxel” value in series [3] (setting [10]) is 392 to 565 µM/min. The “peak plasma concentrations of paclitaxel” value lay in the range of 1.66 to 1.93 µM in series [3] (setting [10]); 860000 to 1.32e+06 µM in series [3] (schedules 1 and 3 (except patient 8), paclitaxel 80 mg m-2). Also, the “Paclitaxel AUC” value in series [3] (schedule 2, paclitaxel 80 mg m-2 3-h i.v., plasma, course 1, patients 5, 7, 10 in order) was in the range of 392 to 565 M/min.

With `CCC1(c2ccccc2)C(=O)NC(=O)NC1=O` [phenobarbitone], the “effect on the metabolism of paclitaxel” value with cytochrome P450 (setting [12]) is recorded as “increase the metabolism of paclitaxel”.

On to `O=C1NC(=O)C(c2ccccc2)(c2ccccc2)N1` [phenytoin], for which, in the series with cytochrome P450 (setting [12]), the “effect on the metabolism of paclitaxel” value is reported as “increase the metabolism of paclitaxel”.
